What was measured:
[1] = system: Leishmania donovani; assay: Antileishmanial activity against Leishmania donovani infected in mouse model of visceral leishmaniasis assessed as reduction in parasite load at 25 mg/kg, po administered for 10 days; type: functional; set-up: scale not given: the % may be the effect or the level left; conditions: time 10 day
[2] = system: Leishmania donovani; assay: Antileishmanial activity against Leishmania donovani; type: functional, organism-based
[3] = Cytotoxicity against human THP-1 cells; type: toxicity, cell-based
[4] = system: Leishmania donovani; assay: Antileishmanial activity against Leishmania donovani infected in mouse model of visceral leishmaniasis assessed as reduction in parasite load; type: functional; set-up: scale not given: the % may be the effect or the level left

Structure (SMILES) | Activity [1] | EC50 [2] | EC50 [3] | Activity [4]
C[C@H]1CN(c2n[nH]c3nc(N[C@H]4CC[C@H](NS(=O)(=O)CCC(F)(F)F)CC4)ncc23)CCO1 [GSK-3186899] | 99% | 1400 nM | > 50000 nM | 
O=C(Nc1ccc(F)c(-c2ccn3c(N4CCOCC4)cnc3n2)c1)N1CCCC1 [GSK-3494245] |  |  |  | 95%
CCCCCCCCCCCCCCCCOP(=O)([O-])OCC[N+](C)(C)C [MILTEFOSINE] |  | 900 nM |  | 
NC[C@@H]1O[C@H](O[C@H]2[C@@H](O)[C@H](O[C@@H]3[C@@H](O)[C@H](N)C[C@H](N)[C@H]3O[C@H]3O[C@H](CO)[C@@H](O)[C@H](O)[C@H]3N)O[C@@H]2CO)[C@H](N)[C@@H](O)[C@@H]1O [PAROMOMYCIN] |  | 6600 nM |  | 

Source: ChEMBL document CHEMBL5241117, “Current leishmaniasis drug discovery” (RSC Med Chem, 2022)
